# In patent US20110105515A1, “TARGETING THE ONCOPROTEIN NUCLEOPHOSMIN” (President and Fellows of Harvard College, priority 2007, published 2011):
# Assays:
# HT29 = HT29 (Colon Cancer), 48 hours, SRB
# MDA-MB-468 = MDA-MB-468 (Breast Cancer), 48 hours, SRB
# LOX IMVI = LOX IMVI (Melanoma), 48 hours, SRB
# SN12C = SN12C (Renal Cancer), 48 hours, SRB
# HCT-15 = HCT-15 (Colon Cancer), 48 hours, SRB
# NCI-H23 = NCI-H23 (Non-Small Cell Lung Cancer), 48 hours, SRB
# SNB-75 = SNB-75 (CNS Cancer), 48 hours, SRB
# KM12 = KM12 (Colon Cancer), 48 hours, SRB
# NCI-H522 = NCI-H522 (Non-Small Cell Lung Cancer), 48 hours, SRB
# A549/ATCC = A549/ATCC (Non-Small Cell Lung Cancer), 48 hours, SRB
# MOLT-4 = MOLT-4 (Leukemia), 48 hours, SRB
# SF-295 = SF-295 (CNS Cancer), 48 hours, SRB
# PC-3 = PC-3 (Prostate Cancer), 48 hours, SRB
# SF-268 = SF-268 (CNS Cancer), 48 hours, SRB
# MALME-3M = MALME-3M (Melanoma), 48 hours, SRB
# SNB-19 = SNB-19 (CNS Cancer), 48 hours, SRB
# OVCAR-5 = OVCAR-5 (Ovarian Cancer), 48 hours, SRB
# IGROV1 = IGROV1 (Ovarian Cancer), 48 hours, SRB
# HS578T = HS578T (Breast Cancer), 48 hours, SRB
# SR = SR (Leukemia), 48 hours, SRB
# ACHN = ACHN (Renal Cancer), 48 hours, SRB
# EKVX = EKVX (Non-Small Cell Lung Cancer), 48 hours, SRB
# OVCAR-4 = OVCAR-4 (Ovarian Cancer), 48 hours, SRB
# SF-539 = SF-539 (CNS Cancer), 48 hours, SRB
# RXF 393 = RXF 393 (Renal Cancer), 48 hours, SRB
# MDA-MB-435 = MDA-MB-435 (Breast Cancer), 48 hours, SRB
# SK-MEL-5 = SK-MEL-5 (Melanoma), 48 hours, SRB
# NCI/ADR-RES = NCI/ADR-RES (Breast Cancer), 48 hours, SRB
# SW-620 = SW-620 (Colon Cancer), 48 hours, SRB
# TK-10 = TK-10 (Renal Cancer), 48 hours, SRB
# OVCAR-8 = OVCAR-8 (Ovarian Cancer), 48 hours, SRB
# A498 = A498 (Renal Cancer), 48 hours, SRB
compound,measurement,setting,value
CC1(C)C=Cc2c(ccc3c4c(n(O)c23)C(C)(C)C2CC35CCCN3C(=O)C2(NC5=O)C4SCC(NC(=O)CCC(N)C(=O)O)C(=O)NCC(=O)O)O1 (stereo not shown) [Glutathione Adduct],GI50,HT29,900 nM
same,TGI,HT29,2010 nM
same,CC50,HT29; read-out: LC50,4510 nM
same,GI50,MDA-MB-468,674 nM
same,TGI,MDA-MB-468,1620 nM
same,GI50,LOX IMVI,806 nM
same,TGI,LOX IMVI,1560 nM
same,GI50,SN12C,1510 nM
same,TGI,SN12C,5640 nM
same,CC50,SN12C; read-out: LC50,17800 nM
same,GI50,HCT-15,840 nM
same,TGI,HCT-15,2040 nM
same,CC50,HCT-15; read-out: LC50,4930 nM
same,GI50,NCI-H23,1090 nM
same,TGI,NCI-H23,3070 nM
same,CC50,NCI-H23; read-out: LC50,14900 nM
same,GI50,SNB-75,896 nM
same,TGI,SNB-75,2450 nM
same,CC50,SNB-75; read-out: LC50,8470 nM
same,GI50,KM12,979 nM
same,TGI,KM12,1910 nM
same,CC50,KM12; read-out: LC50,3730 nM
same,GI50,NCI-H522,727 nM
same,TGI,NCI-H522,1950 nM
same,CC50,NCI-H522; read-out: LC50,6290 nM
same,GI50,A549/ATCC,1370 nM
same,TGI,A549/ATCC,3940 nM
same,CC50,A549/ATCC; read-out: LC50,15800 nM
same,GI50,MOLT-4,425 nM
same,TGI,MOLT-4,1750 nM
same,CC50,MOLT-4; read-out: LC50,20600 nM
same,GI50,SF-295,1450 nM
same,TGI,SF-295,6580 nM
same,CC50,SF-295; read-out: LC50,24400 nM
same,GI50,PC-3,906 nM
same,TGI,PC-3,2590 nM
same,CC50,PC-3; read-out: LC50,11600 nM
same,GI50,SF-268,1130 nM
same,TGI,SF-268,2880 nM
same,CC50,SF-268; read-out: LC50,10900 nM
same,GI50,MALME-3M,419 nM
same,TGI,MALME-3M,3100 nM
same,CC50,MALME-3M; read-out: LC50,25100 nM
same,GI50,SNB-19,1430 nM
same,TGI,SNB-19,6240 nM
same,CC50,SNB-19; read-out: LC50,18700 nM
same,GI50,OVCAR-5,971 nM
same,TGI,OVCAR-5,3030 nM
same,CC50,OVCAR-5; read-out: LC50,12000 nM
same,GI50,IGROV1,1060 nM
same,TGI,IGROV1,2810 nM
same,CC50,IGROV1; read-out: LC50,11900 nM
same,GI50,HS578T,1110 nM
same,TGI,HS578T,3790 nM
same,CC50,HS578T; read-out: LC50,> 50000 nM
same,GI50,SR,228 nM
same,TGI,SR,1280 nM
same,CC50,SR; read-out: LC50,16700 nM
same,GI50,ACHN,961 nM
same,TGI,ACHN,3220 nM
same,CC50,ACHN; read-out: LC50,12300 nM
same,GI50,EKVX,1110 nM
same,TGI,EKVX,5400 nM
same,CC50,EKVX; read-out: LC50,18900 nM
same,GI50,OVCAR-4,742 nM
same,TGI,OVCAR-4,2490 nM
same,CC50,OVCAR-4; read-out: LC50,10100 nM
same,GI50,SF-539,838 nM
same,TGI,SF-539,2030 nM
same,CC50,SF-539; read-out: LC50,4900 nM
same,GI50,RXF 393,829 nM
same,TGI,RXF 393,1750 nM
same,CC50,RXF 393; read-out: LC50,3690 nM
same,GI50,MDA-MB-435,1100 nM
same,TGI,MDA-MB-435,5200 nM
same,CC50,MDA-MB-435; read-out: LC50,22000 nM
same,GI50,SK-MEL-5,826 nM
same,TGI,SK-MEL-5,1860 nM
same,CC50,SK-MEL-5; read-out: LC50,4170 nM
same,GI50,NCI/ADR-RES,3940 nM
same,TGI,NCI/ADR-RES,14000 nM
same,CC50,NCI/ADR-RES; read-out: LC50,44700 nM
same,GI50,SW-620,713 nM
same,TGI,SW-620,1500 nM
same,CC50,SW-620; read-out: LC50,3810 nM
same,GI50,TK-10,1090 nM
same,TGI,TK-10,5460 nM
same,CC50,TK-10; read-out: LC50,17400 nM
same,GI50,OVCAR-8,1600 nM
same,TGI,OVCAR-8,6380 nM
same,CC50,OVCAR-8; read-out: LC50,29800 nM
same,GI50,A498,804 nM
same,TGI,A498,1830 nM
same,CC50,A498; read-out: LC50,4160 nM
